Results reported in PMC2276626, “Structure-Based Inhibitors Exhibit Differential Activities against Helicobacter pylori and Escherichia coli Undecaprenyl Pyrophosphate Synthases” (Journal of Biomedicine and Biotechnology, 2008).

Columns and labels:
[1] = molecular target: T1, Undecaprenyl pyrophosphate synthase (UPPS) (Escherichia coli, UniProt P60472); assay: enzyme activity dose-response with […] UPPS; format: biochemical
T1 construct: gene ispU

[2] = molecular target: T2, Undecaprenyl pyrophosphate synthase (UPPS) (Helicobacter pylori, UniProt P55984); assay: enzyme activity dose-response with […] UPPS; format: biochemical
T2 sequence (P55984 1-234): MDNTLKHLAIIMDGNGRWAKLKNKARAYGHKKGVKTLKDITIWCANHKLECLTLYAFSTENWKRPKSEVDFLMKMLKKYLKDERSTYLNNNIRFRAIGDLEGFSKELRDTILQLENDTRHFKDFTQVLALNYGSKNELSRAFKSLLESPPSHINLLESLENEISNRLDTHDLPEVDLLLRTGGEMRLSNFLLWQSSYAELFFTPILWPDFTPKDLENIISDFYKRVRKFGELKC

[3] = molecular target: Undecaprenyl pyrophosphate synthase (UPPS) (Helicobacter pylori, UniProt P55984, C234A)
[4] = system: C=C(C)CCO[P@@](=O)(O)OP(=O)(O)O; assay: steady-state enzyme kinetics (Km); format: biochemical, Helicobacter pylori; details: Mg2+
[5] = system: CC(C)=CCC/C(C)=C/CC/C(C)=C/CO[P@@](=O)(O)OP(=O)(O)O; assay: steady-state enzyme kinetics (Km); format: biochemical, Helicobacter pylori; details: Mg2+
[6] = substrate: C=C(C)CCO[P@@](=O)(O)OP(=O)(O)O; assay: steady-state enzyme kinetics (Km); format: biochemical, Helicobacter pylori; details: Mg2+; remark: listed apart in the source
[7] = substrate: CC(C)=CCC/C(C)=C/CC/C(C)=C/CO[P@@](=O)(O)OP(=O)(O)O; assay: steady-state enzyme kinetics (Km); format: biochemical, Helicobacter pylori; details: Mg2+; remark: listed apart in the source

T1 sequence (P60472 whole entry): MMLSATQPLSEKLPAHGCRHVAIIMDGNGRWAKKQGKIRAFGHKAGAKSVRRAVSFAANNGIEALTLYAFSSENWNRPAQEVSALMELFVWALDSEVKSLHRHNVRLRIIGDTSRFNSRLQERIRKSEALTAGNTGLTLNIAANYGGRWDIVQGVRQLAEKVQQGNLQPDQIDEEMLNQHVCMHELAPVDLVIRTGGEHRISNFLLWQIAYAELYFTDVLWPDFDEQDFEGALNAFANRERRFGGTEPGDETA

Molecule: O=S(=O)(CS(=O)(=O)Nc1nc2ccc(Cl)cc2s1)Nc1nc2ccc(Cl)cc2s1 [BTB06061]
- IC50 [1]: 71 µM
- IC50 [2]: 350 µM

Molecule: NS(=O)(=O)c1cccc(-c2ccc(C3Nc4ccccc4-c4nc5ccccc5n43)o2)c1 (centres unmarked) [HTS04781]
- IC50 [2]: 362 µM

Molecule: O=P(O)(O)OP(=O)(O)O [pyrophosphate]
- X-ray crystal structure at 2.5 Å (crystals soaked with FsPP, IPP and MgCl2); only [3]: only the pyrophosphate of FsPP was found in the complex structure

Molecule: Undecaprenyl pyrophosphate synthase (UPPS) (Helicobacter pylori 26695; C234A)
- Km [4]: 9.6 ± 0.2 µM
- Km [5]: 0.15 ± 0.04 µM

B1: Undecaprenyl pyrophosphate synthase (UPPS) (Helicobacter pylori 26695) (protein)
chain: T2 sequence (P55984 1-234)
- Km [6]: 9.2 ± 0.1 µM
- Km [7]: 0.11 ± 0.02 µM
